Tests used:
Format in all cases: in vivo
[1] = system: directly sowed rice plant; assay: Test Example 3: effect on crop by foliage application, Wagner pot (symbol b); settings: application herbicide amount 320 g/ha; for b (directly sowed rice plant) effect on crop grade: Table 24
Method in brief: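 Steps: fill a 1/10000-are Wagner pot with alluvial soil; add water and mix to submerge at 0.1–0.5 cm depth; sow rice plus Echinochloa crus-galli var. crus-galli, Leptochloa chinensis and Cyperus difformis; grow in a 25–30 °C greenhouse.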

transplanted rice plant = assay: Test Example 1: effect on crop, application before weed generation in submerged conditions (symbol a); settings: application herbicide amount 320 g/ha
Method in brief: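 Rice at 2.5 leaf stage transplanted into submerged soil (4 cm depth) sown with three weed species; herbicide applied before weed emergence.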

Digitaria ciliaris = assay: Test Example 4: herbicidal effect by soil treatment (symbol F)
Method in brief: (§1)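 Seeds were sown in sterilized diluvial soil, covered with about 1.5 cm of soil, and the soil surface was sprayed with a water-diluted emulsion of the compound at a predetermined rate. Plants grew in a greenhouse at 25° C. to 30° C.; effects were scored visually 3 weeks after application.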

Leptochloa chinensis = assay: Test Example 3: herbicidal effect by foliage application, Wagner pot (symbol D); settings: application herbicide amount 320 g/ha; for D (Leptochloa chinensis) herbicidal effect grade: Table 24
Method in brief: (§2)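 Plants sown in submerged alluvial soil (water depth 0.1–0.5 cm) in a 25–30 °C greenhouse and grown 14 days. An emulsion of the compound diluted in water to a set herbicide amount was sprayed uniformly on foliage. Effect on each plant scored 3 weeks after application.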

beet = assay: Test Example 4: effect on crop by soil treatment (symbol f); settings: for f: beet, effect grade on crop: 320 g/ha
Method in brief: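 Plants are raised in a greenhouse (25° C. to 30° C.) from spot-sown seed, which sits under about 1.5 cm of sterilized diluvial soil in a box shared with weed species.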

soybean = assay: Test Example 5: effect on crop by foliage application, plastic box (symbol d); settings: 320 g/ha, 3 weeks after application
Method in brief: (§3)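 Crop and weed seeds sown in spots in sterilized diluvial soil in plastic boxes and covered with about 1.5 cm soil. Plants raised in a greenhouse at 25° C. to 30° C. for foliar application.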

Lolium multiflorum Lam. = assay: Test Example 4: herbicidal effect by soil treatment (symbol K)
Method in brief: as §1

Chenopodium album = assay: Test Example 4: herbicidal effect by soil treatment (symbol O)
Method in brief: as §1

Monochoria vaginalis = assay: Test Example 1: herbicidal activity, application before weed generation in submerged conditions (symbol C); settings: application herbicide amount 320 g/ha
Method in brief: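 Weed control was rated three weeks after treatment on a 0–5 scale, from 5% or lower up to 90% or more. Pre-emergence water-surface application of diluted emulsion at a predetermined rate was made on the day of sowing, in flooded (4 cm water) pots containing rice seedlings, kept at 25–30 °C under glass.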

[2] = system: Echinochloa crus-galli var. crus-galli; assay: Test Example 3: herbicidal effect by foliage application, Wagner pot (symbol H); settings: application herbicide amount 320 g/ha; for H (Echinochloa crus-galli var. crus-galli) herbicidal effect grade: Table 24
Method in brief: as §2

corn = assay: Test Example 5: effect on crop by foliage application, plastic box (symbol c); settings: 320 g/ha, 3 weeks after application
Method in brief: as §3

[3] = system: Echinochloa oryzacola Vasing.; assay: Test Example 2: herbicidal activity, application during weed generation in submerged conditions (symbol A); settings: Table 23; application herbicide amount 320 g/ha; grade 0-5 by criteria of Test Example 1
Method in brief: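 Seeds sown in flooded alluvial soil (4 cm water) were grown in a 25-30° C greenhouse. At the one- to two-leaf stage, diluted emulsion of compound was applied to the water surface at a predetermined rate. Effect was scored 3 weeks later.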

[4] = application herbicide amount 320 g/ha

| Compound | b (directly sowed rice plant) effect on crop grade [1] | a (transplanted rice plant) effect on crop grade (transplanted rice plant) | Herbicidal effect grade, F: Digitaria ciliaris (Digitaria ciliaris; [4]) | D (Leptochloa chinensis) herbicidal effect grade (Leptochloa chinensis) | d: soybean, effect on crop grade (soybean) | C (Monochoria vaginalis) herbicidal effect grade (Monochoria vaginalis) | H (Echinochloa crus-galli var. crus-galli) herbicidal effect grade [2] | c: corn, effect on crop grade (corn) | Herbicidal effect grade, A: Echinochloa oryzacola Vasing. [3] | effect on crop b (directly sowed rice plant), grade 0-5 [1] | Effect grade on crop, a: transplanted rice plant (transplanted rice plant) | F: Digitaria ciliaris, herbicidal effect grade (Digitaria ciliaris; 320 g/ha) | herbicidal effect on D (Leptochloa chinensis), grade 0-5 (Leptochloa chinensis) | f: beet, effect grade on crop (beet) | d: soybean, effect on crop (criteria 0-5) (soybean) | K: Lolium multiflorum Lam., herbicidal effect grade (Lolium multiflorum Lam.; 320 g/ha) | O: Chenopodium album, herbicidal effect grade (Chenopodium album; 320 g/ha) | Herbicidal effect grade, C: Monochoria vaginalis (Monochoria vaginalis) | herbicidal effect on H (Echinochloa crus-galli var. crus-galli), grade 0-5 [2] | c: corn, effect on crop (criteria 0-5) (corn) | further results |
| --- | --- | --- | --- | --- | --- | --- | --- | --- | --- | --- | --- | --- | --- | --- | --- | --- | --- | --- | --- | --- | --- |
| CON=C(C)CC1(C)CC(O)=C(c2c(C)cc(C)cc2C)C1=O (mixture of isomers) [11-002] | 5 (Herbicidal ratio of 90% or more (almost completely withered)) | 2 (Herbicidal ratio of 20% or higher and lower than 40%) | 0 (Herbicidal ratio of 5% or lower (almost no effect)) | 5 (Herbicidal ratio of 90% or more (almost completely withered)) | 1 (Herbicidal ratio of 5% or higher and lower than 20%) | 0 (Herbicidal ratio of 5% or lower (almost no effect)) | 5 (Herbicidal ratio of 90% or more (almost completely withered)) | 2 (Herbicidal ratio of 20% or higher and lower than 40%) | 2 (Herbicidal ratio of 20% or higher and lower than 40%) |  |  |  |  |  |  |  |  |  |  |  | Effect on crop grade, f: beet (beet; [4]): 0 (Herbicidal ratio of 5% or lower (almost no effect)); Herbicidal effect grade, K: Lolium multiflorum Lam. (Lolium multiflorum Lam.; [4]): 5 (Herbicidal ratio of 90% or more (almost completely withered)); Herbicidal effect grade, O: Chenopodium album (Chenopodium album; [4]): 0 (Herbicidal ratio of 5% or lower (almost no effect)) |
| CC(CC1CC(O)=C(c2c(C)cc(C)cc2C)C1=O)=NOCC(C)Br (stereo not drawn) [1-135] |  |  |  |  |  |  |  |  | 5 (Herbicidal ratio of 90% or more (almost completely withered)) | 5 (Herbicidal ratio of 90% or more (almost completely withered)) | 5 (Herbicidal ratio of 90% or more (almost completely withered)) | 5 (Herbicidal ratio of 90% or more (almost completely withered)) | 4 (Herbicidal ratio of 70% or higher and lower than 90%) | 0 (Herbicidal ratio of 5% or lower (almost no effect)) | 1 (Herbicidal ratio of 5% or higher and lower than 20%) | 5 (Herbicidal ratio of 90% or more (almost completely withered)) | 0 (Herbicidal ratio of 5% or lower (almost no effect)) | 1 (Herbicidal ratio of 5% or higher and lower than 20%) | 5 (Herbicidal ratio of 90% or more (almost completely withered)) | 4 (Herbicidal ratio of 70% or higher and lower than 90%) |  |
| C=C(C)CN(CC)C(=O)OC1=C(c2c(C)cc(C)cc2C)C(=O)C(CC(C)=NOC)C1 (stereo not drawn) [1-130] |  |  |  |  |  |  |  |  | 1 (Herbicidal ratio of 5% or higher and lower than 20%) | 5 (Herbicidal ratio of 90% or more (almost completely withered)) | 3 (Herbicidal ratio of 40% or higher and lower than 70%) | 0 (Herbicidal ratio of 5% or lower (almost no effect)) | 5 (Herbicidal ratio of 90% or more (almost completely withered)) | 0 (Herbicidal ratio of 5% or lower (almost no effect)) | 1 (Herbicidal ratio of 5% or higher and lower than 20%) | 3 (Herbicidal ratio of 40% or higher and lower than 70%) | 0 (Herbicidal ratio of 5% or lower (almost no effect)) | 0 (Herbicidal ratio of 5% or lower (almost no effect)) | 4 (Herbicidal ratio of 70% or higher and lower than 90%) | 1 (Herbicidal ratio of 5% or higher and lower than 20%) |  |
| CCC(CC1CC(O)=C(c2c(C)cc(-c3ccccc3)cc2OC)C1=O)=NOC (mixture of isomers) [13-004] | 5 (Herbicidal ratio of 90% or more (almost completely withered)) | 5 (Herbicidal ratio of 90% or more (almost completely withered)) |  | 5 (Herbicidal ratio of 90% or more (almost completely withered)) | 1 (Herbicidal ratio of 5% or higher and lower than 20%) | 5 (Herbicidal ratio of 90% or more (almost completely withered)) | 5 (Herbicidal ratio of 90% or more (almost completely withered)) | 5 (Herbicidal ratio of 90% or more (almost completely withered)) | 5 (Herbicidal ratio of 90% or more (almost completely withered)) |  |  |  |  |  |  |  |  |  |  |  | F: Digitaria ciliaris, herbicidal effect grade (Digitaria ciliaris; [4]): 5 (Herbicidal ratio of 90% or more (almost completely withered)); f: beet, effect on crop grade (beet; [4]): 0 (Herbicidal ratio of 5% or lower (almost no effect)); K: Lolium multiflorum Lam., herbicidal effect grade (Lolium multiflorum Lam.; [4]): 5 (Herbicidal ratio of 90% or more (almost completely withered)); O: Chenopodium album, herbicidal effect grade (Chenopodium album; [4]): 0 (Herbicidal ratio of 5% or lower (almost no effect)) |
| CON=C(CC1CC(O)=C(c2c(C)cc(-c3ccccc3)cc2C)C1=O)C1CC1 (mixture of isomers) [9-028] | 5 (Herbicidal ratio of 90% or more (almost completely withered)) | 5 (Herbicidal ratio of 90% or more (almost completely withered)) | 5 (Herbicidal ratio of 90% or more (almost completely withered)) | 5 (Herbicidal ratio of 90% or more (almost completely withered)) | 1 (Herbicidal ratio of 5% or higher and lower than 20%) | 5 (Herbicidal ratio of 90% or more (almost completely withered)) | 5 (Herbicidal ratio of 90% or more (almost completely withered)) | 5 (Herbicidal ratio of 90% or more (almost completely withered)) | 5 (Herbicidal ratio of 90% or more (almost completely withered)) |  |  |  |  |  |  |  |  |  |  |  | Effect on crop grade, f: beet (beet; [4]): 0 (Herbicidal ratio of 5% or lower (almost no effect)); Herbicidal effect grade, K: Lolium multiflorum Lam. (Lolium multiflorum Lam.; [4]): 5 (Herbicidal ratio of 90% or more (almost completely withered)); Herbicidal effect grade, O: Chenopodium album (Chenopodium album; [4]): 0 (Herbicidal ratio of 5% or lower (almost no effect)) |
| COc1ccc(CON=C(C)CC2CC(O)=C(c3c(C)cc(C)cc3C)C2=O)cc1 (stereo not drawn) [1-112] |  |  |  |  |  |  |  |  | 4 (Herbicidal ratio of 70% or higher and lower than 90%) | 5 (Herbicidal ratio of 90% or more (almost completely withered)) | 5 (Herbicidal ratio of 90% or more (almost completely withered)) | 4 (Herbicidal ratio of 70% or higher and lower than 90%) | 5 (Herbicidal ratio of 90% or more (almost completely withered)) | 0 (Herbicidal ratio of 5% or lower (almost no effect)) | 0 (Herbicidal ratio of 5% or lower (almost no effect)) | 5 (Herbicidal ratio of 90% or more (almost completely withered)) | 0 (Herbicidal ratio of 5% or lower (almost no effect)) | 5 (Herbicidal ratio of 90% or more (almost completely withered)) | 5 (Herbicidal ratio of 90% or more (almost completely withered)) | 4 (Herbicidal ratio of 70% or higher and lower than 90%) |  |

— patent US11000033B2, “Ketone or oxime compound, and herbicide” (NISSAN CHEMICAL CORPORATION, priority 2014, dated 2021)
